Test results from patent publication US20140249135A1, “PIM KINASE INHIBITORS AND METHODS OF THEIR USE” (NOVARTIS AG, priority 2007, published 2014).
Read-outs that look alike come from different tables or passages of the source.

How the values were obtained:
Assay type in all cases: biochemical
[1] = target: Pim2 kinase (Homo sapiens, UniProt Q9P1W9); test: Pim2 ATP depletion assay;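 also: Luciferase-based luminescent readout of ATP remaining after PIM2 phosphorylates a BAD peptide, final 5 nM enzyme, 4 µM ATP, 10 µM peptide, 2.5% DMSO, run to roughly half ATP consumption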
[2] = target: Pim3 kinase (Homo sapiens, UniProt Q86V86); test: Pim3 ATP depletion assay
[3] = target: Pim1 kinase (Homo sapiens, UniProt P11309); test: Pim1 ATP depletion assay; settings: Pim1 ATP depletion assay;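 also: Luciferase-luciferin luminescence readout of residual ATP after PIM1 transfers phosphate to a peptide substrate, 40 µM ATP added, reaction run to roughly half ATP consumption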
Sequence of Pim1 kinase (P11309 whole entry): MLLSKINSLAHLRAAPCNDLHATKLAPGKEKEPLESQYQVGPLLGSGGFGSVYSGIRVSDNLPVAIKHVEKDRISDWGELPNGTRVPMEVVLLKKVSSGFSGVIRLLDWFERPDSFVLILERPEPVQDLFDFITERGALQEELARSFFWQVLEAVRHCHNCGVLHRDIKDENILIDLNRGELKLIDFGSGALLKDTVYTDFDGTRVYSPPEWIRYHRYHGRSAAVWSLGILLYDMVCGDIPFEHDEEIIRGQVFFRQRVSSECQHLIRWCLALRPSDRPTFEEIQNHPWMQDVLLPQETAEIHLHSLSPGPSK

Sequence of Pim2 kinase (Q9P1W9 whole entry): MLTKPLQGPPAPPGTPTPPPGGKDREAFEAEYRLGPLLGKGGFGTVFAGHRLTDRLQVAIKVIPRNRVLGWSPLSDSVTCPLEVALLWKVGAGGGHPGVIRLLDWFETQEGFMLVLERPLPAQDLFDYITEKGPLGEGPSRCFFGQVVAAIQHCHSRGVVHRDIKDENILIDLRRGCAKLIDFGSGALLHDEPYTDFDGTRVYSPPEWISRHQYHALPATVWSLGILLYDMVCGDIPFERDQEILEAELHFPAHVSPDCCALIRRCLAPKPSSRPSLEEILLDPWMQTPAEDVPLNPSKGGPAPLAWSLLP

| IC50 ([1]; read-out: IC50 (μM) PIM2) [µM] | IC50 ([2]; read-out: IC50 (μM) PIM3) [µM] | IC50 ([3]; read-out: IC50 (μM) PIM1) [µM] | IC50 ([1]; read-out: PIM2 IC50) [µM] | IC50 ([2]; read-out: PIM3 IC50) [µM] | IC50 ([3]; read-out: PIM1 IC50) [µM] | Compound |
| --- | --- | --- | --- | --- | --- | --- |
| > 25 | > 25 | > 25 |  |  |  | Cc1cnc(C(=O)Nc2cnccc2N2CCCC(N)C2)cn1 (stereo not drawn) [Example 198, N-[4-(3-aminopiperidin-1-yl)pyridin-3-yl]-5-methyl-pyrazine-2-carboxamide] |
| < 1 | < 1 | < 1 |  |  |  | Nc1ccc(-c2ccc(-c3ccccc3)cc2)nc1C(=O)Nc1cnccc1N1CCC[C@H](N)C1 [Example 473, 3-Amino-6-biphenyl-4-yl-pyridine-2-carboxylic acid (3-amino-3,4,5,6-tetrahydro-2H-[1,4′]bipyridinyl-3′-yl)-amide] |
|  |  |  | < 1 | < 1 | < 1 | Cc1ccc(-c2ccc(N)c(C(=O)Nc3cnccc3-c3cc(N)nc(C)n3)n2)c(F)c1 [Example 558, 3-Amino-6-(2-fluoro-4-methyl-phenyl)-pyridine-2-carboxylic acid [4-(6-amino-2-methyl-pyrimidin-4-yl)-pyridin-3-yl]-amide] |
|  |  |  | < 1 | < 1 | < 1 | Nc1cncc(-c2ccncc2NC(=O)c2nc(-c3ccccc3F)ccc2N)n1 [Example 625, 3-amino-N-[4-(6-amino-pyrazin-2-yl)pyridin-3-yl]-6-(2-fluorophenyl)pyridine-2-carboxamide] |
|  |  |  | < 1 | < 1 | < 1 | Nc1ccc(-c2ccccc2)nc1C(=O)Nc1cnccc1N1C[C@@H](N)C[C@@H](F)C1 [Example 578, 3-Amino-6-phenyl-pyridine-2-carboxylic acid (3-amino-5-fluoro-3,4,5,6-tetrahydro-2H-[1,4′]bipyridinyl-3′-yl)-amide] |
|  |  |  | < 1 | < 1 | < 1 | Nc1ccc(-c2ccncc2NC(=O)c2nc(-c3ccccc3F)ccc2N)cn1 [Example 604, 3-amino-N-(6-amino-3,4′-bipyridin-3′-yl)-6-(2-fluoro-phenyl)pyridine-2-carboxamide] |
|  |  |  | < 1 | < 1 | < 1 | Nc1cnc(-c2cccc(F)c2F)nc1C(=O)Nc1cnccc1N1CCC[C@H](N)C1 [Example 546, 5-Amino-2-(2,3-difluoro-phenyl)-pyrimidine-4-carboxylic acid (3-amino-3,4,5,6-tetrahydro-2H-[1,4′]bipyridinyl-3′-yl)-amide] |
|  |  |  | < 1 | < 1 | < 1 | COc1cncc(-c2ccc(N)c(C(=O)Nc3cnccc3N3CCC[C@H](N)C3)n2)n1 [Example 722, 3-Amino-6-(6-methoxy-pyrazin-2-yl)-pyridine-2-carboxylic acid (3-amino-3,4,5,6-tetrahydro-2H-[1,4′]bipyridinyl-3′-yl)-amide] |
|  |  |  | < 1 | < 1 | < 1 | COC(=O)c1nc(-c2nc(C(=O)Nc3cnccc3N3CCC[C@H](N)C3)c(N)cc2F)c(F)cc1N [Example 742, 5,5′-Diamino-6′-(3-amino-3,4,5,6-tetrahydro-2H-[1,4′]bi-pyridinyl-3′-ylcarbamoyl)-3,3′-difluoro-[2,2′]bipyridinyl-6-carboxylic acid methyl ester] |
|  |  |  | < 1 | < 1 | < 1 | Nc1ccc(-c2c(F)cccc2F)nc1C(=O)Nc1cnccc1N1C[C@@H](N)C[C@@H](O)C1 [Example 672, 3-Amino-6-(2,6-difluoro-phenyl)-pyridine-2-carboxylic acid (3-amino-5-hydroxy-3,4,5,6-tetrahydro-2H-[1,4′]bi-pyridinyl-3′-yl)-amide] |
|  |  |  | < 1 | < 1 | < 1 | N[C@@H]1CN(c2ccncc2NC(=O)c2ccc(F)c(-c3ccccc3F)n2)CC[C@H]1O [Example 682, 5-Fluoro-6-(2-fluoro-phenyl)-pyridine-2-carboxylic acid (3-amino-4-hydroxy-3,4,5,6-tetra-hydro-2H-[1,4′]bipyridinyl-3′-yl)-amide] |
|  |  |  | < 1 | < 1 | < 1 | CCOc1cncc(-c2nc(C(=O)Nc3cnccc3N3CCC[C@H](N)C3)c(N)cc2F)n1 [Example 740, 3-Amino-6-(6-ethoxy-pyrazin-2-yl)-5-fluoro-pyridine-2-carboxylic acid (3-amino-3,4,5,6-tetrahydro-2H-[1,4′]bi-pyridinyl-3′-yl)-amide] |
| < 1 | < 1 | < 1 |  |  |  | Nc1ncc(-c2ccc(N)c(C(=O)Nc3cnccc3N3CCC[C@H](N)C3)n2)c(C(F)(F)F)n1 [Example 486, 3-Amino-6-(2-amino-4-trifluoromethyl-pyrimidin-5-yl)-pyridine-2-carboxylic acid (3-amino-3,4,5,6-tetrahydro-2H-[1,4′]bipyridinyl-3′-yl)-amide] |
|  |  |  | < 1 | < 1 | < 1 | NC(=O)c1ccnc(-c2ccc(N)c(C(=O)Nc3cnccc3N3CCC[C@H](N)C3)n2)c1 [Example 704, 5′-Amino-[2,2′]bipyridinyl-4,6′-dicarboxylic acid 4-amide 6′-[(3-amino-3,4,5,6-tetrahydro-2H-[1,4′]bipyridinyl-3′-yl)-amide]] |
|  |  |  | < 1 | < 1 | < 1 | Nc1ccc(-c2cccc(Cl)c2F)nc1C(=O)Nc1cnccc1N1CCCC(O)C1 (stereo not drawn) [Example 655, 3-Amino-6-(3-chloro-2-fluoro-phenyl)-pyridine-2-carboxylic acid (3-hydroxy-3,4,5,6-tetra-hydro-2H-[1,4′]bipyridinyl-3′-yl)-amide] |
| 10 to 25 | < 1 | < 1 |  |  |  | CC(=O)c1ccc(N2CCC(N)CC2)c(NC(=O)c2nccnc2N)c1 [Example 220, N-[5-acetyl-2-(4-aminopiperidin-1-yl)phenyl]-3-aminopyrazine-2-carboxamide] |
|  |  |  | < 1 | < 1 | < 1 | CC(C)NC(=O)c1ccc(F)c(-c2cccc(C(=O)Nc3cnccc3-c3cc(N)nc(C(F)(F)F)n3)n2)c1 [Example 553, 6-(2-Fluoro-5-isopropylcarbamoyl-phenyl)-pyridine-2-carboxylic acid [4-(6 amino-2-trifluoromethyl-pyrimidin-4-yl)-pyridin-3-yl]-amide] |
| > 25 | 10 to 25 | > 25 |  |  |  | Nc1nccnc1C(=O)Nc1cc(C(=O)C2CC2)ccc1N1CCNCC1 [Example 245, 3-amino-N-[5-(cyclopropyl-carbonyl)-2-piperazin-1-yl-phenyl]pyrazine-2-carboxamide] |
|  |  |  | < 1 | < 1 | < 1 | Cc1ccccc1-c1ccncc1NC(=O)c1nc(-c2c(F)cccc2F)ccc1N [Example 585, 3-amino-6-(2,6-difluoro-phenyl)-pyridine-2-carboxylic acid (4-o-tolyl-pyridin-3-yl)-amide] |
|  |  |  | < 1 | < 1 | < 1 | Nc1ccc(-c2c(F)cccc2F)nc1C(=O)Nc1cnccc1-c1cc(F)nc(F)c1 [Example 607, 3-amino-N-(2′,6′-difluoro-4,4′-bipyridin-3-yl)-6-(2,6-difluorophenyl)pyridine-2-carboxamide] |
|  |  |  | < 1 | < 1 | < 1 | CC(C)NC(=O)c1ccc(F)c(-c2ccc(N)c(C(=O)Nc3cnccc3N3CC[C@@H](O)[C@H](N)C3)n2)c1F [Example 732, 3-Amino-6-(2,6-difluoro-3-isopropylcarbamoyl-phenyl)-pyridine-2-carboxylic acid (3-amino-4-hydroxy-3,4,5,6-tetra-hydro-2H-[1,4′]bipyridinyl-3′-yl)-amide] |
| < 1 | < 1 | < 1 |  |  |  | Nc1ccc(-c2c(F)cccc2F)nc1C(=O)Nc1cnccc1N1CC[C@@H](F)[C@H](N)C1 [Example 277, 3-Amino-6-(2,6-difluoro-phenyl)-pyridine-2-carboxylic acid (3-amino-4-fluoro-3,4,5,6-tetrahydro-2H-[1,4′]bipyridinyl-3′-yl)-amide] |
|  |  |  | 1 to 10 | < 1 | < 1 | COc1cccnc1-c1ccc(N)c(C(=O)Nc2cnccc2N2CCC[C@H](N)C2)n1 [Example 697, 5-Amino-3′-methoxy-[2,2′]bi-pyridinyl-6-carboxylic acid (3-amino-3,4,5,6-tetrahydro-2H-[1,4′]bipyridinyl-3′-yl)-amide] |
|  |  |  | < 1 | < 1 | < 1 | Nc1ccc(-c2ccc(F)cn2)nc1C(=O)Nc1cnccc1N1CCC[C@H](N)C1 [Example 727, 5-Amino-5′-fluoro-[2,2′]bi-pyridinyl-6-carboxylic acid (3-amino-3,4,5,6-tetrahydro-2H-[1,4′]bipyridinyl-3′-yl)-amide] |
| 1 to 10 | < 1 | < 1 |  |  |  | CC(=O)c1ccc(N2CCCC(N)C2)c(NC(=O)c2nccnc2N)c1 (stereo not drawn) [Example 221, N-[5-acetyl-2-(3-aminopiperidin-1-yl)phenyl]-3-aminopyrazine-2-carboxamide] |
|  |  |  | < 1 | < 1 | < 1 | Cc1cc(-c2ccncc2NC(=O)c2nc(-c3c(F)cccc3F)c(F)cc2N)cc(N)n1 [Example 619, 3-amino-N-(2′-amino-6′-methyl-4,4′-bipyridin-3-yl)-6-(2,6-difluorophenyl)-5-fluoropyridine-2-carboxamide] |
|  |  |  | < 1 | < 1 | < 1 | Cc1nc(N)cc(-c2ccncc2NC(=O)c2nc(-c3nccs3)ccc2N)n1 [Example 643, 3-amino-N-[4-(6-amino-2-methylpyrimidin-4-yl)pyridin-3-yl]-6-(1,3-thiazol-2-yl)pyridine-2-carboxamide] |
|  |  |  | < 1 | < 1 | < 1 | Cc1nc(N)cc(-c2ccncc2NC(=O)c2nc(-c3ccccc3)ccc2N)n1 [Example 559, 3-Amino-6-phenyl-pyridine-2-carboxylic acid [4-(6-amino-2-methyl-pyrimidin-4-yl)-pyridin-3-yl]-amide] |
